The source of these data is patent publication US20250340529A1, “Heterocyclic Compounds as Immunomodulators of PD-L1 Interactions” (Ascletis BioScience Co., Ltd, priority 2021, published 2025).

In assay [1] the test system is Hep3B-OS8-hPDL1 cells and CD3+ T cells. Put plainly: Hep3B-OS8-hPDL1 and T cells co-culture assay (IFN-γ by ELISA). The class given is cell-based. The settings on record: Homo sapiens, T-cell, 72 hours, read-out: Tumor and T Cell EC50 (nm). Here is the method: a. Hep3B-OS8-hPDL1 and T Cells Co-Culture Assay
• 1. Hep3B-OS8-hPDL1 cells were cultured in 1640 medium supplemented with 10% fetal bovine serum, 1% penicillin and streptomycin, in which 100 μg/mL G418 and Hygromycin B were also added. • 2. Hep3B-OS8-hPDL1 cells were harvested and treated with 10 μg/mL mitomycin C at 37° C. for 1.5 h, and the cells were then washed thoroughly with PBS for four times. • 3. Cells were re-suspended with RPMI 1640 medium containing 10% FBS and the cell density was adjusted to 5E5 cells/mL. • 4. Cells were seeded into 96-well flat bottom plate (2.5E4 cells/50 μL/well). b. CD3+ T Cells Isolation (30 mL Blood) • 5. The human blood sample from an individual donor is diluted by the same volume of sterile PBS, for instance add 25 mL sterile PBS into 25 mL fresh whole blood and mix sufficiently by gentle shake. • 6. Transfer 15 mL Lymphoprep medium into a new 50 mL centrifuge tube. • 7. Add the diluted blood sample as soft as possible onto the surface of the Ficoll medium to make sure there is a clear dividing line between the two liquids, and the volume ratio between Ficoll and diluted blood (30 mL) is 1:2. • 8. Move the tube gently to centrifuge, at 1000×g, 25 min, 20° C., with the acceleration (5) and Min deceleration (0) settings during the centrifugation. • 9. Four interfaces in all could be observed after the centrifugation, which are layers of plasma, mononuclear cells, the Ficoll medium and RBCs from top to bottom, and move the tube as gently as possible so as keep the four interfaces separated. Absorb and transfer the second layer of mononuclear cells into another new sterile centrifuge tube carefully, and absorb certain volume of plasma instead of the Ficoll medium if inevitable. • 10. Add sterile PBS of the three times the volume of PBMCs in the tube with PBMC. • 11. Wash the cells twice with 5-10 mL PBS before cell counting with cytometer. Centrifuge at 350×g, 10 min, 20° C. With the acceleration (5) and deceleration (5) settings during the centrifugation. • 12. Resuspend the cells with recommended medium and adjust the density of the PBMCs to the final concentration of 5E7 cells/mL. • 13. Isolate CD3+ T cells with EasySep™ Human T Cell Isolation Kit (STEMCELL Technologies #17951), and the cells were seeded into 96-well flat bottom plate (5E4 cells/100 μL/well). c. Compounds solutions preparation • 14. Prepare the Compounds dilutions in RPMI 1640 medium with 10% FBS according to the Layout. 15. Add compounds into each well in a volume of 50 μL. {3 compounds (GLC01-258, GLC01-269, GLC01-465) in 7 concentrations (0.03, 0.1, 0.3, 1, 3, 10 and 30 μM) and 6 compounds (GLC01-411, GLC01-292, GLC01-445, GLC01-475, GLC01-470 and GLC01-468) in the same concentration (1 μM)}. • 16. […]
In general terms: ELISA stands for enzyme-linked immunosorbent assay.

The target in assay [2] is extracellular domains of PD-L1 (Homo sapiens (Human), UniProt Q9NZQ7). Put plainly: PD-L1 dimerization (biochemical protein-protein interaction assay). The settings on record: PDL1-Eu and PDL1-A2, 25° C., 120 min. Here is the method: Compounds were tested in biochemical protein-protein interaction assays to determine if they can specifically dimerize the extracellular domains of PD-L1. • (1) Dilute cpd 1:3 in succession in DMSO for each column for 10±0 pts (refer to dilution plate map) • (2) Transfer 0.2 μL cpds solution in each row to 384 assay plate using Echo, each column containing 2 replicates (refer to assay plate map). • (3) Add 20 μL prepared mixture include PDL1-Eu and PDL1-A2 solution to assay plate, centrifuge at 1000 rpm for 1 min. • (4) Incubate at 25° C. for 120 min. • (5) Read fluorescence signal on Envision 2104 plate reader. • (6) Read the Ratio (665 nm/615 nm) signal on Envision. • (7) Analyze the raw data using the equation (V. Data analysis)
Chain of extracellular domains of PD-L1 (Q9NZQ7 19-238): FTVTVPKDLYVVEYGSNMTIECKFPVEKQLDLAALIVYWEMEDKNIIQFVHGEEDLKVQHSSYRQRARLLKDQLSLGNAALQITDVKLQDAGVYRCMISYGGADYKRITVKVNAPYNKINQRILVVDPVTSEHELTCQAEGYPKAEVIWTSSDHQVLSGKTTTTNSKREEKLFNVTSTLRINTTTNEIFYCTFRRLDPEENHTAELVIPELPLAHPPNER

As for `O=C(O)[C@H](CO)NCCN1C(=O)COc2cc(-c3cccc(-c4cccc(-c5ccc6c(c5)OCC(=O)N6CCN[C@@H](CO)C(=O)O)c4Cl)c3Cl)ccc21` [Compound 465], the values for the EC50 in assay [1] and in assay [2] were 1.2 nM and 77.9 nM, respectively. As for `O=C1COc2cc(-c3cccc(-c4cccc(-c5ccc6c(c5)OCC(=O)N6C[C@H]5CCCN5)c4Cl)c3Cl)ccc2N1C[C@H]1CCCN1` [Compound 529], the concentration for a half-maximal effect (EC50) in assay [1] amounted to 325 nM.

Usually EC50 stands for the concentration at which the effect is half-maximal.
